According to US20240148671A1, “METHODS FOR IMPROVING POULTRY HEALTH” (CORNELL UNIVERSITY, priority 2021, published 2024):
Marks after values point to notes of the source that are not given here.

Tests used:
Assay type in all cases: in vivo, Gallus gallus
[1] = Glycogen in pectoral muscle; details: intra-amniotic 1 mL/egg on day 17, at hatch, mean ± SEM, n=8
Description: (§1) The pure resveratrol and pterostilbene were individually diluted in 18 MΩ H2O. The intra-amniotic administration followed the methodology previously described. On the 17th day of embryonic development, the eggs with viable embryos (n=60) were randomly allocated into 6 groups (n=10) with a similar weight frequency distribution. For the intra-amniotic treatment, 1 mL of solution per egg was injected into the amniotic fluid (via candling) with the aid of a 21-gauge needle. After the procedure, the injection sites were sealed with cellophane tape, and the eggs were distributed into six groups: (1) no injection; (2) 18 MΩ H2O; (3) 5% inulin; (4) 5% resveratrol; (5) 5% pterostilbene; and (6) synergistic: 4.75% resveratrol and 0.25% pterostilbene. […] The eggs were equally distributed in each incubator location to reduce possible allocation bias. Upon hatching (21 days), the hatchlings were euthanized by CO2 exposure, and the blood, liver, heart, pectoral muscle, small intestine and cecum were obtained.

SI (Sucrose isomaltase) = test: Gene expression (RT-PCR), SI; details: at hatch; b175: compared with the no injection and 5% inulin control groups; b192: comparator not stated; p<0.05
Description: The pure resveratrol and pterostilbene were individually diluted in 18 MΩ H2O. The intra-amniotic administration followed the methodology previously described. On the 17th day of embryonic development, the eggs with viable embryos (n=60) were randomly allocated into 6 groups (n=10) with a similar weight frequency distribution. For the intra-amniotic treatment, 1 mL of solution per egg was injected into the amniotic fluid (via candling) with the aid of a 21-gauge needle. […]
The RNA was isolated as described previously (RNeasy Mini Kit, Qiagen Inc., Valencia, CA, USA), and 30 mg of the duodenal tissue or liver tissue (n =8) was used to extract the total RNA. […] Finally, the RNA was eluted in 50 μL of RNase-free water and quantified by absorbance at 260 and 280 nm.
RT-PCR was conducted as described. […] The cDNA content was assessed by absorbance at 260 and 280 nm, with an extinction coefficient of 33 (single-stranded DNA). Genomic DNA contamination was evaluated via a real-time RT-PCR assay for the reference gene samples [17,18,30]. […]
The procedures were performed as previously published. […] The optimal MgCl2 concentration achieved, for each reaction, an amplification plot (lowest cycle product, Cp), the uppermost fluorescence intensity and the steepest amplification slope. […]

cecal microbiome = test: 16S rRNA gene sequencing of the cecal microbiota; details: cecal content at hatch
Description: as §1
As was formerly described, cecal samples were used to extract microbial genomic DNA (PowerSoil DNA isolation kit, MoBio Laboratories Ltd., Carlsbad, CA, USA). […] The PCR products were purified (Beckman Coulter, Atlanta, GA, USA) and quantified (Quant-iT PicoGreen dsDNA quantitation kit, Invitrogen, Carlsbad, CA, USA). […]
The 16S rRNA gene sequence analysis was performed using QIIME2 as previously described. The sequence reads were demultiplexed by per-sample barcodes, and the Divisive Amplicon Denoising Algorithm (DADA2) was used to correct the Illumina-sequenced amplicon read errors. […] The alpha and β diversity were calculated from samples containing at least 9.800 sequences. The alpha diversity parameter, a measure of the richness of the bacterial community, was calculated using the Shannon Index, and the beta diversity was assessed by a Jaccard similarity distance matrix. […]
The values in this paper were expressed as means and standard errors of the means (SEM). […] The results were analyzed by Analysis of Variance (ANOVA). […]

Oc1ccc(C=Cc2cc(O)cc(O)c2)cc1 [5% Resveratrol, Resveratrol]
Glycogen (mg/g) [1]: 0.019 ± 0.004^a mg/g | SI relative expression (SI (Sucrose isomaltase)): down regulated | β diversity of the cecal microbiome (Jaccard distances), comparison between groups (cecal microbiome; n=5, 5% inulin vs all other experimental groups (p<0.01), 5% pterostilbene vs 18 MΩ H2O control (p<0.05), stilbene groups among each other): strong clustering | Most differentially enriched taxa (LEfSe) vs no injection control (cecal microbiome; compared with the no injection control group, p<0.05 (FIGS. 5A-5B)): Enterobacteriales order and Enterobacteriaceae family
